Experimental data reported in patent US11879145B2, “Reagents and methods for replication, transcription, and translation in semi-synthetic organisms” (The Scripps Research Institute, priority 2019, dated 2024).

Tested on: sfGFP^151(AXC)
Assay: In vivo translation screen of XTPs/YTPs: total sfGFP fluorescence
Assay type: cell-based, E. coli
Description: In vivo Translation Screen of XTPs/YTPs. An overnight culture of the SSO strain ML2 carrying the pGEX-MbPylRS TetR plasmid was grown in 2×YT supplemented with 50 mM potassium phosphate, […] chloramphenicol and 100 μg/mL carbenicillin (herein referred to in this section as “media”), then diluted back to an OD600 of 0.03 in the same media and grown to an OD600 of 0.4 to 0.6. The culture was then chilled with shaking over ice-water for 15 minutes then pelleted by centrifugation at 3,200×g for 10 min. Cells were then resuspended and washed with ice-cold ddH2O twice then resuspended in ice-cold ddH2O to OD600 of 55-65. The electrocompetent cells (50 μL) and 1 ng of Golden Gate assembled plasmid with the UBP within the sfGFP and tRNAPyl genes (see Golden Gate Assembly of Plasmids) were transferred to a pre-chilled electroporation cuvette (0.2-cm-gap), then electroporated (Gene Pulser II; Bio-Rad) according to manufacturer's recommendations (voltage […], capacitor 2.5 μF, resistor 200Ω), and then immediately diluted with 950 μL of media. An aliquot (40 μL) of the transformation was then diluted five-fold in media supplemented with dCNMOTP (25 μM) and dTPT3TP (10 μM) for a final volume of 200 μL then allowed to recover for 1 h shaking at 37° C. Two-fold dilutions of the recovery were plated onto solid media supplemented with zeocin (50 μg/mL), dCNMOTP (10 μM), dTPT3TP (10 μM), and agar (2% w/v), then grown at 37° C. for 18 h. Single colonies were picked and grown in media (300 μL) supplemented with 50 μg/mL zeocin and provided dCNMOTP (25 μM) and dTPT3TP (10 μM) (herein afterward referred to in this section as “growth media”). The culture was monitored for cell growth (Envision 2103 Multilabel Plate Reader with a 590/20 nm filter) and then collected at an OD600˜1.0. An aliquot (50 μL) was subjected to plasmid isolation using the ZR Plasmid Prep Kit (Zymo Research). Isolated plasmids were then subjected to the streptavidin gel shift assay described below (using primers P3-4 and P5-6, Table S1) to determine UBP retention.
A colony with excellent UBP retention was then diluted to an OD600˜0.01 in growth media and grown to OD600˜0.4-0.6. This culture was then divided into multiple 300 μL cultures and for the screen of XTP analogs, each was provided with the corresponding XTP (at either 25 μM or 250 μM) or ddH2O for “−XTP” samples, TPT3TP (30 μM), and AzK (10 mM). For the screen of YTP analogs, each 300 μL culture was provided with the corresponding YTP (at either 25 μM or 250 μM) or ddH2O for “−YTP” samples, NaMTP (250 μM), and AzK (10 mM). Samples were shielded from light after addition of AzK to prevent photodegradation. These samples were then grown at 37° C. for 20 min before adding 1 mM IPTG and grown at 37° C. for an additional 1 h to induce T7 RNAP and transcription of tRNAPyl and PylRS. From this point on, cells were monitored for growth and fluorescence. Expression of sfGFP was then induced with anhydrotetracycline (100 ng/mL). After an additional 3 h of growth at 37° C., cells were collected (230 μL for affinity purification of sfGFP), cooled, and then pelleted and stored at −80° C. before protein purification.
An SAR analysis was initiated with NaMTP and the nine XTP analogs. Based on performance in the dXTP screen described above, and to eliminate variable loss at the DNA level as a complicating factor, the unnatural information was encoded with the dCNMO-dTPT3 UBP. Additionally, the E. coli strain ML2, which expresses the nucleoside triphosphate transporter PtNTT2, but has also been genetically engineered for higher fidelity replication of the UBP by deletion of the gene encoding RecA (as is common in cloning strains) and overexpression of DNA Pol II was used. The same plasmid described above in Examples 1A and 1, harboring sfGFP^151(AXC) and tRNA^Pyl(GYT), was used, and to focus the screen to a single unnatural ribonucleotide, the M. mazei Pyl tRNA was transcribed in the presence of 30 μM TPT3TP. […]

## COc1cc(C)c(F)cc1[C@@H]1O[C@H](COP(=O)(O)OP(=O)(O)OP(=O)(O)O)[C@@H](O)[C@H]1O [Compound 5FMTP]
XTP 25 μM
  More fluorescence than MMO2TP: 34%
XTP 250 μM
  Bulk fluorescence compared to cells grown with NaMTP at the same concentration: 90%
